What is called IC50 is the concentration that gives 50% inhibition. Low readings indicate greater potency in that assay, high ones weaker potency in that assay.

The target of experiment [1] is T1, AhR in SBMC cells (Rattus norvegicus, UniProt P41738).
T1 construct: endogenous in cells; host or cells: rat stromal bone marrow cell line (RSBMC / SBMC)
T1 sequence (P41738 10-853): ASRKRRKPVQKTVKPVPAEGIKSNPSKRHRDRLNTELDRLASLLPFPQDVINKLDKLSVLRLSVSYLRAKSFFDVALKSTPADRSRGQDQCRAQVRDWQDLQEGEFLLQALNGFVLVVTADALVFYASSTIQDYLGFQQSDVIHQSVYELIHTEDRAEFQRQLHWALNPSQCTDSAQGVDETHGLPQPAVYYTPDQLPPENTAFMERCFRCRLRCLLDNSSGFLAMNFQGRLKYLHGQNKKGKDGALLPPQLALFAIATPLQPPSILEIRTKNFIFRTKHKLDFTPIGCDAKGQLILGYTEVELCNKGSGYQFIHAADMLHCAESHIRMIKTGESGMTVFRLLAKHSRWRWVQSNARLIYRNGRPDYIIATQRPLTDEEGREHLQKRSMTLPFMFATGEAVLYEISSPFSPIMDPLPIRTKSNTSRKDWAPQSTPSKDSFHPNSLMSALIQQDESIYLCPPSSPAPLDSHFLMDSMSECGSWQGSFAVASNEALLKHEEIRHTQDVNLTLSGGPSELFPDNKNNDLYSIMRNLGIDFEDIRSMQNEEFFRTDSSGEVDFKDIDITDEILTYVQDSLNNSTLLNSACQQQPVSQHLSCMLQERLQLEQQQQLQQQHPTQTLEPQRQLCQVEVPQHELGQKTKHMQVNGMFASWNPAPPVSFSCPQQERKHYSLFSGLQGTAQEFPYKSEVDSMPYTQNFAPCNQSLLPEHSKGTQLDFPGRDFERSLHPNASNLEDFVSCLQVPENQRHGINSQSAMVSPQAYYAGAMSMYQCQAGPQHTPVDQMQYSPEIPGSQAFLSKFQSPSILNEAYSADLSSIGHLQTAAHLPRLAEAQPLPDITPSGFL
As to the kind of experiment: Live whole cell (RSBMC) competitive uptake/binding assay with 3H-TCDD.
Method: The need for preincubation (see below) may also alter competition kinetics in this type of binding assay. Cells were plated at a density of 10,000 per well in Titertek 96-well plates, and left overnight to attach in medium. […] Cells were preincubated with cold drug one hour prior to addition of radiolabeled TCDD (specific activity 33.4 Ci/mmol; Chemsyn Lab, Kansas) (pilot studies having shown that preincubation was required to detect competition). One set of wells was incubated without cold drug to determine total binding. ^3H-TCDD (10,000 cpm/well in a volume of 10 μl) was added and incubated for 4 hours at room temperature. The media were aspirated and the cells washed 4× with 100 μl of PBS. 100 μl of 0.1N sulphuric acid was added and the cells were incubated at 37° C. overnight to break the cells open. 80 μl of the lysate was added to 5 ml of scintillation fluid and counted in a beta counter.

The test system of experiment [2] is IL-1 Beta. The settings on record: Casper et al. 1999; cited from earlier work.

`Clc1cc2c(cc1Cl)Oc1cc(Cl)c(Cl)cc1O2` [TCDD, 2,3,7,8-tetrachlorodibenzo-p-dioxin] yielded a half-inhibitory concentration (IC50) in experiment [1] of roughly 3.7 nM. Moreover, in experiment [1] (1 h preincubation with cold drug, 4 h with 3H-TCDD at room temperature), the “concentration reducing 3H-TCDD binding to background levels” value came to 33 nM.

For the compound `Oc1ccc(C=Cc2cc(O)cc(O)c2)cc1` [resveratrol, 3,5,4′-trihydroxystilbene], the “induction of IL-1 Beta by AhR ligands” value in experiment [2] was “prevent the induction”.

The values are drawn from patent US6716883B1, “Composition useful to treat periodontal disease” (priority 1998, dated 2004).
